Molecules are shown by their SMILES.

Compound `Cc1cc(-c2ccc(Cl)c(Cl)c2)nc(-c2cccc(-c3ccc(S(N)(=O)=O)s3)c2)n1` [Example 195, 5-{3-[4-(3,4-Dichloro-phenyl)-6-methyl-pyrimidin-2-yl]-phenyl}-thiophene-2-sulfonic acid Amide] showed a melting point of 238 °C. As for `Cc1cc(-c2ccc(Cl)c(Cl)c2)nc(-c2ccnc(-c3ccc(S(N)(=O)=O)s3)c2)n1` [Example 196, 5-{4-[4-(3,4-Dichloro-phenyl)-6-methyl-pyrimidin-2-yl]-pyridin-2-yl}-thiophene-2-sulfonic acid amide], the melting point is 267 °C. The figure for `Cc1cc(-c2ccc(C(F)(F)F)cc2)nc(-c2ccnc(-c3ccc(S(N)(=O)=O)s3)c2)n1` [Example 197, 5-{4-[4-Methyl-6-(4-trifluoromethyl-phenyl)-pyrimidin-2-yl]-pyridin-2-yl}-thiophene-2-sulfonic acid amide] is 263.5 °C. The figure for `Cc1cc(-c2ccc(Cl)c(Cl)c2)nc(-n2cnc(-c3cccc(S(N)(=O)=O)c3)c2)n1` [Example 198, 3-{1-[4-(3,4-Dichloro-phenyl)-6-methyl-pyrimidin-2-yl]-1H-imidazol-4-yl}-benzenesulfonamide] is 210 °C. The figure for `Cc1cc(-c2ccc(Cl)c(Cl)c2)nc(-n2cnc(-c3ccc(S(N)(=O)=O)cc3)c2)n1` [Example 199, 4-{1-[4-(3,4-Dichloro-phenyl)-6-methyl-pyrimidin-2-yl]-1H-imidazol-4-yl}-benzenesulfonamide] is 282.5 °C; for `Cc1cc(-c2ccc(Cl)cc2)nc(-n2cnc(-c3ncc(S(N)(=O)=O)s3)c2)n1` [Example 200, 2-{1-[4-(4-Chloro-phenyl)-6-methyl-pyrimidin-2-yl]-1H-imidazol-4-yl}-thiazole-5-sulfonic acid amide] it is 255.5 °C. In the case of `NS(=O)(=O)c1cccc(-c2cccc(-c3nc(-c4ccc(Cl)c(Cl)c4)cc(C(F)(F)F)n3)c2)c1` [Example 202, 3′-[4-(3,4-Dichloro-phenyl)-6-trifluoromethyl-pyrimidin-2-yl]-biphenyl-3-sulfonic acid amide], the melting point came to 241 °C. In turn, `NS(=O)(=O)c1cccc(-c2cc(-c3nc(-c4ccc(Cl)c(Cl)c4)cc(C(F)(F)F)n3)ccn2)c1` [Example 203, 3-{4-[4-(3,4-Dichloro-phenyl)-6-trifluoromethyl-pyrimidin-2-yl]-pyridin-2-yl}-benzenesulfonamide] had a melting point of 247 °C. The figure for `NS(=O)(=O)c1ccc(-c2cccc(-c3nc(-c4ccc(Cl)c(Cl)c4)cc(C(F)(F)F)n3)c2)s1` [Example 204, 5-{3-[4-(3,4-Dichloro-phenyl)-6-trifluoromethyl-pyrimidin-2-yl]-phenyl}-thiophene-2-sulfonic acid amide] is 203 °C. Compound `NS(=O)(=O)c1ccc(-c2cc(-c3nc(-c4ccc(Cl)c(Cl)c4)cc(C(F)(F)F)n3)ccn2)s1` [Example 205, 5-{4-[4-(3,4-Dichloro-phenyl)-6-trifluoromethyl-pyrimidin-2-yl]-pyridin-2-yl}-thiophene-2-sulfonic acid amide] had a melting point of 266 °C.

`Cc1cc(-c2cc(C(F)(F)F)nc(-c3cccc(-c4cccc(S(N)(=O)=O)c4)c3)n2)ccc1C(F)(F)F` [Example 206, 3′-[4-(3-Methyl-4-trifluoromethyl-phenyl)-6-trifluoromethyl-pyrimidin-2-yl]-biphenyl-3-sulfonic acid amide] returned a melting point of 205 °C. The figure for `Cc1cc(-c2cc(C(F)(F)F)nc(-c3cccc(-c4ccc(S(N)(=O)=O)s4)c3)n2)ccc1C(F)(F)F` [Example 207, 5-{3-[4-(3-Methyl-4-trifluoromethyl-phenyl)-6-trifluoromethyl-pyrimidin-2-yl]-phenyl}-thiophene-2-sulfonic acid amide] is 216 °C; for `NS(=O)(=O)c1ccc(-c2cn(-c3nc(-c4ccc(Cl)c(Cl)c4)cc(C(F)(F)F)n3)cn2)s1` [Example 208, 5-{1-[4-(3,4-Dichloro-phenyl)-6-trifluoromethyl-pyrimidin-2-yl]-1H-imidazol-4-yl}-thiophene-2-sulfonic acid amide] it is 282 °C (dec.).

The compound `Cc1cc(-c2cc(C(F)(F)F)nc(-n3cnc(-c4ccc(S(N)(=O)=O)s4)c3)n2)ccc1C(F)(F)F` [Example 209, 5-{1-[4-(3-Methyl-4-trifluoromethyl-phenyl)-6-trifluoromethyl-pyrimidin-2-yl]-1H-imidazol-4-yl}-thiophene-2-sulfonic acid amide] registered a melting point of 260 °C. The figure for `NS(=O)(=O)c1ccc(-c2cn(-c3nc(-c4ccc(Cl)c(Cl)c4)cc(C(F)(F)F)n3)cn2)cc1` [Example 211, 4-{1-[4-(3,4-Dichloro-phenyl)-6-trifluoromethyl-pyrimidin-2-yl]-1H-imidazol-4-yl}-benzenesulfonamide] is 334 °C. As for `Cc1cc(-c2cc(C(F)(F)F)nc(-n3cnc(-c4ccc(S(N)(=O)=O)cc4)c3)n2)ccc1C(F)(F)F` [Example 212, 4-{1-[4-(3-Methyl-4-trifluoromethyl-phenyl)-6-trifluoromethyl-pyrimidin-2-yl]-1H-imidazol-4-yl}-benzenesulfonamide], the figure is 287 °C; as for `Cc1cc(-c2cc(C(F)(F)F)nc(-n3cnc(-c4cccc(S(N)(=O)=O)c4)c3)n2)ccc1C(F)(F)F` [Example 213, 3-{1-[4-(3-Methyl-4-trifluoromethyl-phenyl)-6-trifluoromethyl-pyrimidin-2-yl]-1H-imidazol-4-yl}-benzenesulfonamide], 180 °C; as for `Cc1cc(-c2ccc(Cl)c(Cl)c2)nc(-n2cnc(-c3cccc(S(C)(=O)=O)c3)c2)n1` [Example 214, 4-(3,4-Dichloro-phenyl)-2-[4-(3-methanesulfonyl-phenyl)-imidazol-1-yl]-6-methyl-pyrimidine], 213 °C. The figure for `NS(=O)(=O)c1cccc(-c2cn(-c3nc(-c4ccc(Cl)c(Cl)c4)cc(C(F)(F)F)n3)cn2)c1` [Example 215, 3-{1-[4-(3,4-Dichloro-phenyl)-6-trifluoromethyl-pyrimidin-2-yl]-1H-imidazol-4-yl}-benzenesulfonamide] is 239 °C; for `Cc1cc(-c2ccc(Cl)c(Cl)c2)nc(-n2cnc(-c3ccc(S(N)(=O)=O)s3)c2)n1` [Example 216, 5-{1-[4-(3,4-Dichloro-phenyl)-6-methyl-pyrimidin-2-yl]-1H-imidazol-4-yl}-thiophene-2-sulfonic acid amide] it is 253.5 °C. For `CS(=O)(=O)c1cccc(-c2cn(-c3nc(-c4ccc(C(F)(F)F)cc4)cc(C(F)(F)F)n3)cn2)c1` [Example 217, 2-[4-(3-Methanesulfonyl-phenyl)-imidazol-1-yl]-4-trifluoromethyl-6-(4-trifluoromethyl-phenyl)-pyrimidine], the melting point was 231 °C. The figure for `CS(=O)(=O)c1cccc(-c2cccc(-c3nc(-c4ccc(C(F)(F)F)cc4)cc(C(F)(F)F)n3)c2)c1` [Example 219, 2-(3′-Methanesulfonyl-biphenyl-3-yl)-4-trifluoromethyl-6-(4-trifluoromethyl-phenyl)-pyrimidine] is 183.5 °C.

What is called melting point is the temperature of the solid-liquid transition.
